Data on nine compounds can be found in PubChem BioAssay (NCI).

Holding throughout (assay): growth of human tumour cells (NCI), 48 h
The subject of assay [1] is HCT-116 colon.
Assay [2] has as its system U251 CNS.
The subject of assay [3] is MOLT-4 leukemia.
In assay [4] the test system is A549 NSCLC.
For assay [5], the system named is CCRF-CEM leukemia.
The subject of assay [6] is HL-60(TB) leukemia.
For assay [7], the system named is PC-3 prostate.
Assay [8] concerns 786-0 renal.
The test system of assay [9] is HCT-15 colon.
Assay [10] relates to SW-620 colon.

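Cultured in 96-well plates, cells were exposed to test compound for 48 hours across five concentrations. GI50 is the concentration that inhibits growth by half. Definition used: TGI = concentration required for complete inhibition of growth.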

With `O=C1C(Cl)=C(Nc2cccc(Cl)c2)C(=O)N1Cc1ccc(Cl)cc1`, the GI50 in assay [1] was 0.442 µM; in [2] it was 0.312 µM; in assay [3] it was 0.513 µM; in assay [4], 3.71 µM; in assay [5], 0.318 µM; in [6], 1.65 µM. Further, the GI50 in [7] was 1.32 µM; in assay [8] it was 0.186 µM; in [9], 0.43 µM; in assay [10], 0.323 µM. The TGI in assay [1] is 6.53 µM; in assay [2], 14.2 µM; in assay [3], above 100 µM; in assay [4], 21 µM; in assay [5], above 19.8 µM; in [6], 15.7 µM. For the same compound, the TGI amounted to 11.9 µM in assay [7], 5.48 µM in assay [8], 13 µM in [9] and 9.97 µM in assay [10].

`CC(C)Cn1cnc2c(SCc3ccc(Cl)cc3Cl)nc(N)nc21`: the TGI in assay [1] was above 100 µM; in assay [2], above 100 µM; in [3], 26.9 µM; in [4], above 100 µM; in assay [7] it was above 100 µM; in assay [8], above 100 µM. Also, the TGI in assay [9] and in assay [10] was above 100 µM each time.

Take `COc1ccc2[nH]cc(-c3ccc(-c4c[nH]c5ccc(OC)cc45)s3)c2c1`: the GI50 in assay [1] was 3.62 µM; in assay [2], 3.68 µM; in assay [3] it was 1.16 µM; in assay [4], 3.94 µM; in [5], 0.345 µM; in assay [6] it was 1.59 µM. For the same compound, the GI50 was 3.08 µM in assay [7], 2.36 µM in assay [8], 2.73 µM in assay [9] and 2.94 µM in assay [10]. Moreover, the TGI came to 11.7 µM in assay [1]; 12.6 µM in [2]; 6.95 µM in [3]; 21.9 µM in [4]; 13.6 µM in assay [5]; 6.27 µM in [6]. Besides, the TGI in assay [7] amounted to 9.77 µM; in [8] it was 7.64 µM; in assay [9], 8.72 µM; in assay [10], 8.15 µM.

On to `C[C@]12C[C@H](CCCCCCNCCOC(=O)NCCCc3ccc(N(CCCl)CCCl)cc3)C3=C4CCC(=O)C=C4CCC3C1CC[C@@H]2O` (some centres not stated), for which the GI50 is 2.34 µM in assay [1]; 0.34 µM in assay [3]; 0.234 µM in assay [5]; 0.248 µM in assay [6]; 1.17 µM in [7]; 0.841 µM in [8]. For the same compound, the GI50 in assay [10] is 1.2 µM. The TGI in assay [3] worked out at 1.56 µM; in assay [5] it was 0.621 µM; in [6] it was 0.659 µM; in assay [8], 3.89 µM; in assay [10], 4.07 µM.

Turning to `CCOC(=O)/C(C=Nc1ccc(-c2nc3ccccc3[nH]2)cc1)=C(/C)O`, the GI50 in assay [1] is 7.82 µM; in assay [2], 8.74 µM; in [4] it was 12 µM; in assay [6], 18.5 µM; in assay [7], 27.2 µM; in assay [8], 11 µM. In addition, the GI50 in [9] is 10.1 µM; in assay [10], 11.7 µM. In addition, the TGI was 14.5 µM in assay [1]; 15.6 µM in assay [2]; 29.9 µM in assay [4]; 44 µM in assay [6]; above 50 µM in assay [7]; 23.5 µM in assay [8]. Also, the figures for the TGI in assay [9] and in assay [10] were 24.4 µM and 22.7 µM, respectively.

On to `CCN(Cc1cc(Nc2nc(C)cn3c(-c4cn[nH]c4)cnc23)sn1)C(C)(C)CO`, for which the GI50 was 0.0127 µM in assay [1]; 0.0289 µM in [2]; 0.0465 µM in assay [3]; 0.0543 µM in assay [4]; below 0.01 µM in assay [5]; 0.0219 µM in assay [7]. In addition, the values for the GI50 in assay [8], in assay [9] and in [10] were 0.0473 µM, 0.0746 µM and below 0.0107 µM, respectively. Moreover, the TGI in assay [1] came out at 2.3 µM; in assay [2], 2.21 µM; in assay [3] it was 12.4 µM; in assay [4], 2.21 µM; in assay [5], 9.55 µM; in assay [7] it was 9.66 µM. In addition, the TGI in [8] was 2.73 µM; in [9] it was 11.4 µM; in [10], 5.08 µM.

Consider `O=C1C(Cl)=C(Nc2cccc(F)c2)C(=O)N1Cc1ccc(Cl)cc1`, for which the GI50 in [1] was 0.392 µM; in assay [2], 0.337 µM; in assay [3] it was 0.506 µM; in assay [4], 1.73 µM; in assay [5], 0.118 µM; in [7], 0.526 µM. The GI50 was 0.305 µM in assay [8], 0.398 µM in assay [9] and 0.531 µM in assay [10]. The TGI in assay [1] was 2.7 µM; in assay [2], above 32 µM; in assay [3], above 100 µM; in [4], 16.9 µM; in assay [5], 11.1 µM; in assay [7], 4.53 µM. For the same compound, the results for the TGI in [8] and in assay [10] were 3.98 µM and 13 µM, respectively.

Regarding `O=C(Oc1cccc(F)c1OC(=O)c1cccc(O)c1)c1cccc(O)c1`, the GI50 was 20.2 µM in assay [1]; 17.8 µM in [2]; 15.9 µM in assay [3]; 24.6 µM in assay [4]; 4.28 µM in assay [6]; 52.9 µM in assay [7]. Moreover, the GI50 is 37 µM in [8], 15.3 µM in [9] and 37.4 µM in [10]. Further, the TGI in assay [1] was above 100 µM; in assay [2], above 100 µM; in assay [3], above 100 µM; in assay [4], above 100 µM; in assay [6], 72.3 µM; in assay [7], above 100 µM. Also, the TGI in assay [8], in assay [9] and in assay [10] was above 100 µM in each case.

For the compound `OC(Cc1ccncc1)C(Cl)(Cl)Cl` (configuration not stated), the GI50 in assay [2] was above 100 µM; in assay [3], 0.0988 µM; in assay [4] it was above 100 µM; in assay [5] it was 32 µM; in assay [6], 0.152 µM; in assay [7] it was 21.8 µM. For the same compound, the GI50 in assay [8], in assay [9] and in [10] was above 100 µM in each case. The TGI in assay [2] was above 100 µM; in assay [3] it was above 100 µM; in [4], above 100 µM; in assay [5], above 100 µM; in [6] it was 60.1 µM; in assay [7], above 100 µM. The TGI in assay [8], in assay [9] and in assay [10] was above 100 µM in each case.
